Assay results from US10029986B2, “Alkynyl pyridine-substituted amide compound and pesticide” (NISSAN CHEMICAL INDUSTRIES, LTD., priority 2014, dated 2018).

Columns and labels:
[1] = system: Phaeosphaeria nodorum (Synonym: Septoria nodorum); experiment: Test on the preventive effect against wheat glume blotch; format: in vivo; conditions: Parastagonospora nodorum, 144 h; test solution A 500 ppm, 5 ml per pot, wheat 1.3-leaf stage, 2 days inoculation chamber then 6 days at 20° C.
Experimental: (§1) Compounds of the present invention were dissolved in a solvent for emulsion (a mixture of Sorpol (registered trademark) 3005XL (manufactured by Toho Chemical Industry Co., Ltd.): N-methylpyrrolidone: Solvesso (registered trademark) 200 (manufactured by ExxonMobil Chemical) in a ratio of 1:5:2) to prepare 20 wt % emulsifiable concentrates. Then, distilled water was added to dilute the emulsifiable concentrates to the prescribed concentration (500 ppm), and the obtained solutions were used in the following the Test Examples 1 to 8. Wheat (varieties: Haruyutaka) was seeded in 90 cm^3 plastic pot, and at 1.3-leaf stage, 5 ml per pot of test solution A of the compounds of the present invention was applied. One day after treatment, a suspension of conidium of Phaeosphaeria nodorum (Synonym: Septoria nodorum) was sprayed to the wheat, and the pot was left in the inoculation chamber at 20° C. under humidity of 100% RH for 2 days. Then, the pot was placed in an air-conditioned greenhouse (20° C.) for 6 days. The proportion of the formed lesion in the inoculated leaves were measured to calculate the control value in accordance with the same formula as in the Test Example 1. The test was carried out in duplicate.

[2] = system: Erysiphe polygoni (synonym: Erysiphe betae); experiment: Test on the preventive effect against cucumber powdery mildew; format: in vivo; conditions: 216 h, test solution A 500 ppm, 5 ml per pot sprayed, cucumber cotyledon stage, 9 days after inoculation
Experimental: Compounds of the present invention were dissolved in a solvent for emulsion (a mixture of Sorpol (registered trademark) 3005XL (manufactured by Toho Chemical Industry Co., Ltd.): N-methylpyrrolidone: Solvesso (registered trademark) 200 (manufactured by ExxonMobil Chemical) in a ratio of 1:5:2) to prepare 20 wt % emulsifiable concentrates. Then, distilled water was added to dilute the emulsifiable concentrates to the prescribed concentration (500 ppm), and the obtained solutions were used in the following the Test Examples 1 to 8. Cucumber (varieties: Sagami Hanjiro) was seeded in 90 cm^3 plastic pot, and at the cotyledon stage, 5 ml per pot of test solution A of the compounds of the present invention was sprayed. After drying in air, the pot was placed in an air-conditioned greenhouse (20° C.), and a suspension of conidium of Erysiphe polygoni (synonym: Erysiphe betae) was sprayed. After the pot were replaced at the same temperature for 9 days, the proportion of the formed lesion in the inoculated leaves were counted to calculate the control value in accordance with the following formula. The test was carried out in duplicate. Control value=[1−(lesion area ratio in treated plot/lesion are a ratio in non-treated plot)]×100

[3] = system: Colletotrichum lagenarium (Synonym: Colletotrichum orbiculare); experiment: Test on the preventive effect against cucumber anthracnose; format: in vivo; conditions: 168 h, test solution A 500 ppm, 5 ml per pot sprayed, 2 days inoculation chamber then 7 days at 23° C.
Experimental: Compounds of the present invention were dissolved in a solvent for emulsion (a mixture of Sorpol (registered trademark) 3005XL (manufactured by Toho Chemical Industry Co., Ltd.): N-methylpyrrolidone: Solvesso (registered trademark) 200 (manufactured by ExxonMobil Chemical) in a ratio of 1:5:2) to prepare 20 wt % emulsifiable concentrates. Then, distilled water was added to dilute the emulsifiable concentrates to the prescribed concentration (500 ppm), and the obtained solutions were used in the following the Test Examples 1 to 8. Cucumber (varieties: Sagami Hanjiro) was seeded in 90 cm^3 plastic pot, and at the cotyledon stage, 5 ml per pot of test solution A of the compounds of the present invention was sprayed. One day later, a suspension of conidium of Colletotrichum lagenarium (Synonym: Colletotrichum orbiculare) was sprayed, and the pot was left for 2 days in the inoculation chamber at 25° C. under humidity of 100% RH. Thereafter, the pot was placed in an air-conditioned greenhouse (23° C.) and left at the same temperature for 7 days. Thereafter, the proportion of the formed lesion in the inoculated leaves were measured to calculate the control value in accordance with the same formula as in Test Example 1. The test was carried out in duplicate.

Botrytis cinerea [4] = experiment: Test on the preventive effect against cucumber gray mold (spore inoculation); format: in vivo; conditions: 72 h, test solution A 500 ppm, 5 ml per pot, cucumber cut leaves, conidium inoculation, 3 days at 20° C.
Experimental: Compounds of the present invention were dissolved in a solvent for emulsion (a mixture of Sorpol (registered trademark) 3005XL (manufactured by Toho Chemical Industry Co., Ltd.): N-methylpyrrolidone: Solvesso (registered trademark) 200 (manufactured by ExxonMobil Chemical) in a ratio of 1:5:2) to prepare 20 wt % emulsifiable concentrates. Then, distilled water was added to dilute the emulsifiable concentrates to the prescribed concentration (500 ppm), and the obtained solutions were used in the following the Test Examples 1 to 8. Cucumber (varieties: Sagami Hanjiro) was seeded in 90 cm^3 plastic pot, and at the cotyledon stage, 5 ml per pot of test solution A of the compounds of the present invention was applied. After drying in air, the treated leaves were cut and transferred in plastic containers. 30 μl of a mixture of a suspension of conidium of Botrytis cinerea and a dissolved PDA medium in a ratio of 1:1 was dropped on each treated leaf and inoculated. After the inoculation, the plastic containers were placed in 20° C. with humid conditions for 3 days, and the proportion of the formed lesion in the inoculated leaves were counted to calculate the control value in accordance with the same formula as in the Test Example 1. The test was carried out in duplicate.

Puccinia recondita = experiment: Test on the preventive effect against wheat leaf rust; format: in vivo; conditions: 216 h, test solution A 500 ppm, 5 ml per pot, wheat 1.3-leaf stage, 1 day inoculation chamber then 8 days at 20° C.
Experimental: as §1, with “Norin 61)” for “Haruyutaka)”, “spores” for “conidium”, “Puccinia recondita” for “Phaeosphaeria nodorum (Synonym: Septoria nodorum)”, “1 day. Thereafter,” for “2 days. Then,”, “8” for “6”, “counted” for “measured”

Asperaillus niger = experiment: Test on the antifungal activity against Asperaillus niger; format: cell-based; conditions: 48 h; test solution B 100 ppm, 10 μl per well, 96 well plate, 25° C. dark, 2 days after treatment; read-out: efficacy (flora area ratio relative to non-treated well)
Experimental: Compounds of the present invention were dissolved in dimethyl sulfoxide to prepare 1 wt % solutions. Then, distilled water was added to dilute the solutions to the prescribed concentration (100 ppm), and the obtained solutions were used in the following the Test Examples 9 to 12. 60 μl of a potato dextrose 1% agar medium was added to each well of a 96 well plate, and 30 μl of sterilized water containing spores of Asperaillus niger (10 spores/3 μl) was added to each well. Further, 10 μl per well of test solution B of the compounds of the present invention was added, and the plate was left at rest at 25° C. under dark conditions. 2 days after treatment, the flora area ratio (%) was determined to calculate the efficacy (%) relative to the non-treated well in accordance with the following formula. Efficacy (%)=[1−(flora area ratio in treated plot/flora area ratio in non-treated well)]×100

Sclerotinia sclerotiorum = experiment: Test on the preventive effect against cucumber stem rot; format: in vivo; conditions: 48 h, test solution A 500 ppm, 5 ml per pot, agar block inoculation, 2 days at 20° C.
Experimental: (§2) Compounds of the present invention were dissolved in a solvent for emulsion (a mixture of Sorpol (registered trademark) 3005XL (manufactured by Toho Chemical Industry Co., Ltd.): N-methylpyrrolidone: Solvesso (registered trademark) 200 (manufactured by ExxonMobil Chemical) in a ratio of 1:5:2) to prepare 20 wt % emulsifiable concentrates. Then, distilled water was added to dilute the emulsifiable concentrates to the prescribed concentration (500 ppm), and the obtained solutions were used in the following the Test Examples 1 to 8. Cucumber (varieties: Sagami Hanjiro) was seeded in 90 cm^3 plastic pot, and at the cotyledon stage, 5 ml per pot of test solution A of the compounds of the present invention was applied. After drying in air, the pot was transferred in a plastic container, and an agar blocks (diameter: 5 mm) containing Sclerotinia sclerotiorum which was preliminarily cultivated in a PDA medium was inoculated to the seed leaves of the cucumber treated with the solution. After the inoculation, the plastic container was covered with a plastic sheet, and placed at 20° C. and humidified for 2 days, thus the proportion of the formed lesion in the inoculated leaves were measured to calculate the control value in accordance with the same formula as in the Test Example 1. The test was carried out in duplicate.

Botrytis cinerea [5] = experiment: Test on the preventive effect against cucumber gray mold (mycelium inoculation); format: in vivo; conditions: 48 h, test solution A 500 ppm, 5 ml per pot, cucumber cotyledon, agar block inoculation, 2 days at 20° C.
Experimental: as §2, with “applied. On the next day,” for “applied. After drying in air,”, “containing Botrytis cinerea” for “containing Sclerotinia sclerotiorum”, “inoculated on” for “inoculated to”, “the cotyledon” for “the seed leaves”, “sheet, then” for “sheet, and”, “2 days. Thus” for “2 days, thus”

[6] = system: Colletotrichum lagenarium (Synonym: Colletotrichum orbiculare); experiment: Test on the preventive effect against cucumber anthracnose; format: in vivo; conditions: 168 h, 100 ppm solution (symbol *), 5 ml per pot sprayed, 2 days inoculation chamber then 7 days at 23° C.

In the case of CC(NC(=O)c1cccnc1C(F)F)C(SCC(F)(F)F)c1ncc(C#CC2CC2)cc1Cl (stereo not drawn) [3-033a], the pest or weed control at 500 µg/mL [1] is reported as at least 70%, the pest or weed control at 500 µg/mL [2] is reported as at least 70% and the pest or weed control at 500 µg/mL [3] is reported as at least 70%. The melting point was 72 to 74 °C and the pest or weed control at 500 µg/mL (Botrytis cinerea [4]) was at least 70%.

Cn1cc(C(=O)NC2CC2c2ncc(C#CC3CC3)cc2Cl)c(C(F)F)n1 (stereo not drawn) [8-033, N-[2-[3-chloro-5-(cyclopropylethynyl)pyridin-2-yl]cyclopropyl]-3-difluoromethyl-1-methyl-1H-pyrazole-4-carboxamide] showed a pest or weed control at 500 µg/mL (Puccinia recondita) of at least 70%, an inhibition of growth at 100 µg/mL (Asperaillus niger) of at least 50% and a pest or weed control at 500 µg/mL (Sclerotinia sclerotiorum) of at least 70%. For the same molecule, the pest or weed control at 500 µg/mL (Botrytis cinerea [5]) was at least 70%, the melting point was 176 to 178 °C and the pest or weed control at 500 µg/mL (Botrytis cinerea [4]) was at least 70%.

In the case of CC(Cc1ncc(C#CCO)cc1Cl)NC(=O)c1cn(C)nc1C(F)F (stereo not drawn) [8-025], the pest or weed control at 100 ppm [6] is reported as at least 70%.
